Among the data in patent EP2964612B1, “P[…] AND THEIR USE AS FLUORESCENT LABELS” (Illumina Cambridge Limited, priority 2013, dated 2014) are Kd values, retold here.

The target in this assay is T1, Pol 957 EA (Thermococcus sp., UniProt Q56366).
T1 sequence (Q56366 1-775): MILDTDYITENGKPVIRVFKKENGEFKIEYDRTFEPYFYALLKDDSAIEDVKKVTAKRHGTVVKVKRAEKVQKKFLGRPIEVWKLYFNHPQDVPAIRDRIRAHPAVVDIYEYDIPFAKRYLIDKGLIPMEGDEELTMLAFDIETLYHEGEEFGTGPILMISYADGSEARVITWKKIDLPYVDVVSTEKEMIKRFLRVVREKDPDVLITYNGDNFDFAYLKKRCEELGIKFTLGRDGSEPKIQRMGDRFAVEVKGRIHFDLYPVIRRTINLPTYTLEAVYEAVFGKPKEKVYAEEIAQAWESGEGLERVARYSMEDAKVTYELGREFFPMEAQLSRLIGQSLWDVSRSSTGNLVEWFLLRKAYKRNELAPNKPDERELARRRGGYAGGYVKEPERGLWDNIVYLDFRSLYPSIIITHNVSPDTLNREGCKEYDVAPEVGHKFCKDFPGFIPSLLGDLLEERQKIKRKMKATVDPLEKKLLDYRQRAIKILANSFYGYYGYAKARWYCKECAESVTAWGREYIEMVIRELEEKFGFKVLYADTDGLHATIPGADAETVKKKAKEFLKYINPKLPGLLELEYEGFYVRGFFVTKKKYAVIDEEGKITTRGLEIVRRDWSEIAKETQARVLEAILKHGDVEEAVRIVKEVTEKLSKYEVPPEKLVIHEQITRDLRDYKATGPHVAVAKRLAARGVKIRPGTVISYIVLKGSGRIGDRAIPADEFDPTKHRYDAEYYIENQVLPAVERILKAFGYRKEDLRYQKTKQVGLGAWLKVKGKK
Kind of assay: Binding affinity of labelled 3'-azidomethylthymidine triphosphates to the polymerase (Table 2).

Consider `Cc1cn([C@H]2C[C@H](OCN=[N+]=[N-])[C@@H](COP(=O)(O)OP(=O)(O)OP(=O)(O)O)O2)c(=O)[nH]c1=O` [Dark ffT], for which the Kd (usually the concentration at which binding is half-saturated) was 550 nM.
